Laboratory results published in PubChem BioAssay AID248 (DTP/NCI, 2004).
Several values for one entry are separate records, joined by “and”; a condition that tells them apart may be missing. Equal values may be shown once. Toxic doses and inconclusive results are not listed.

System: L1210 leukemia ip in BDF1 mice, survival T/C
Test: NCI In Vivo Anticancer Drug Screen. Data for tumor model L1210 Leukemia (intraperitoneal) in B6D2F1 (BDF1) mice
Details: endpoint: mean survival time, higher = longer survival
Procedure, shortened: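 Read-out is survival time, reported as the treated-group measurement over the vehicle-control measurement.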

[1] = dose: 100.0 mg/kg/injection, schedule: Q01DX001 (ip), vehicle: saline
[2] = dose: 200.0 mg/kg/injection, schedule: Q01DX001 (ip), vehicle: saline
[3] = dose: 100.0 mg/kg/injection, schedule: Q01DX001 (ip), vehicle: carboxymethylcellulose (CMC)
[4] = dose: 200.0 mg/kg/injection, schedule: Q01DX001 (ip), vehicle: carboxymethylcellulose (CMC)
[5] = dose: 400.0 mg/kg/injection, schedule: Q01DX001 (ip), vehicle: carboxymethylcellulose (CMC)
[6] = dose: 25.0 mg/kg/injection, schedule: Q01DX009 (ip), vehicle: saline
[7] = dose: 50.0 mg/kg/injection, schedule: Q01DX009 (ip), vehicle: saline
[8] = dose: 100.0 mg/kg/injection, schedule: Q01DX009 (ip), vehicle: saline
[9] = dose: 100.0 mg/kg/injection, schedule: Q04DX003 (ip), vehicle: saline
[10] = dose: 100.0 mg/kg/injection, schedule: Q04DX003 (ip), vehicle: saline with Tween-80
[11] = dose: 200.0 mg/kg/injection, schedule: Q04DX003 (ip), vehicle: saline with Tween-80
[12] = dose: 50.0 mg/kg/injection, schedule: Q04DX003 (ip), vehicle: saline
[13] = dose: 200.0 mg/kg/injection, schedule: Q04DX003 (ip), vehicle: saline

For `c1ccc([P+](C[P+](c2ccccc2)(c2ccccc2)c2ccccc2)(c2ccccc2)c2ccccc2)cc1`, the T/C (dose: 0.19 mg/kg/injection, schedule: Q01DX009 (ip), vehicle: Klucel (hydroxypropylcellulose) (HPC)) was 98 % of control, the T/C (dose: 0.39 mg/kg/injection, schedule: Q01DX009 (ip), vehicle: Klucel (hydroxypropylcellulose) (HPC)) was 175 % of control and the T/C (dose: 0.78 mg/kg/injection, schedule: Q01DX009 (ip), vehicle: Klucel (hydroxypropylcellulose) (HPC)) was 102 % of control. The T/C (dose: 1.56 mg/kg/injection, schedule: Q01DX009 (ip), vehicle: Klucel (hydroxypropylcellulose) (HPC)) was 97 % of control, the T/C (dose: 1.56 mg/kg/injection, schedule: Q04DX003 (ip), vehicle: Klucel (hydroxypropylcellulose) (HPC)) was 93 % of control and the T/C (dose: 3.12 mg/kg/injection, schedule: Q01DX009 (ip), vehicle: Klucel (hydroxypropylcellulose) (HPC)) was 97 % of control. For the same molecule, the T/C (dose: 3.12 mg/kg/injection, schedule: Q04DX003 (ip), vehicle: Klucel (hydroxypropylcellulose) (HPC)) was 92 % of control and the T/C (dose: 6.25 mg/kg/injection, schedule: Q04DX003 (ip), vehicle: Klucel (hydroxypropylcellulose) (HPC)) was 90 % of control.

`Cc1ccnc(NS(=O)(=O)c2ccc(N=Nc3c(N)nc(N)nc3N)cc2)n1` was tested, and the T/C [1] was 92 % of control, the T/C [2] was 97 % of control and the T/C (dose: 400.0 mg/kg/injection, schedule: Q01DX001 (ip), vehicle: saline) was 121 % of control.

`COC(=O)Nc1ccccc1[N+](=O)[O-]` was tested, and the T/C (dose: 100.0 mg/kg/injection, schedule: Q04DX003 (ip), vehicle: other) was 103 % of control, the T/C (dose: 200.0 mg/kg/injection, schedule: Q04DX003 (ip), vehicle: other) was 101 % of control and the T/C (dose: 400.0 mg/kg/injection, schedule: Q04DX003 (ip), vehicle: other) was 111 % of control.

With `O=S(=O)(F)c1ccc(-c2cc(Cl)c3c(Br)cc(Br)cc3n2)cc1` the T/C (dose: 100.0 mg/kg/injection, schedule: Q04DX003 (ip), vehicle: Klucel (hydroxypropylcellulose) (HPC)) was 100 % of control, the T/C (dose: 200.0 mg/kg/injection, schedule: Q04DX003 (ip), vehicle: Klucel (hydroxypropylcellulose) (HPC)) was 94 % of control and the T/C (dose: 400.0 mg/kg/injection, schedule: Q04DX003 (ip), vehicle: Klucel (hydroxypropylcellulose) (HPC)) was 102 % of control.

For `COC(=O)NC(CI)c1ccccc1` (stereo not drawn), the T/C (dose: 75.0 mg/kg/injection, schedule: Q01DX001 (ip), vehicle: saline) was 110 % of control, the T/C (dose: 150.0 mg/kg/injection, schedule: Q01DX001 (ip), vehicle: saline) was 110 % of control and the T/C (dose: 300.0 mg/kg/injection, schedule: Q01DX001 (ip), vehicle: saline) was 100 % of control.

For `CC(=O)OCCCC[N+](=O)[O-]`, the T/C [3] was 98 % of control, the T/C [4] was 98 % of control and the T/C [5] was 98 % of control.

`CCCCCCCCCCC1CCC2CCC3CCCC4CCC1C2C34` (stereo not drawn) was tested, and the T/C (dose: 25.0 mg/kg/injection, schedule: Q04DX003 (ip), vehicle: acetone) was 96 % of control, the T/C (dose: 50.0 mg/kg/injection, schedule: Q04DX003 (ip), vehicle: acetone) was 88 % of control and the T/C [1] was 88 % of control. For the same molecule, the T/C (dose: 100.0 mg/kg/injection, schedule: Q04DX003 (ip), vehicle: acetone) was 86 % of control and the T/C [2] was 90 % of control.

With `Cn1cnc([N+](=O)[O-])c1Sc1ncnc2nc[nH]c12` the T/C (dose: 8.0 mg/kg/injection, schedule: Q01DX Z (ip), vehicle: methylcellulose (MC)) was 109 % of control, the T/C (dose: 12.0 mg/kg/injection, schedule: Q01DX Z (ip), vehicle: methylcellulose (MC)) was 112 % of control and the T/C (dose: 17.0 mg/kg/injection, schedule: Q01DX Z (ip), vehicle: methylcellulose (MC)) was 117 % of control. The T/C (dose: 25.0 mg/kg/injection, schedule: Q01DX Z (ip), vehicle: methylcellulose (MC)) was 104 % of control, the T/C (dose: 62.0 mg/kg/injection, schedule: Q01DX001 (ip), vehicle: carboxymethylcellulose (CMC)) was 124 % of control and the T/C (dose: 250.0 mg/kg/injection, schedule: Q01DX001 (ip), vehicle: carboxymethylcellulose (CMC)) was 150 % of control. For the same molecule, the T/C (dose: 500.0 mg/kg/injection, schedule: Q01DX001 (ip), vehicle: carboxymethylcellulose (CMC)) was 165 % of control.

For `CCN(CC)c1ccc(N=Nc2ccc(S(=O)(=O)O)cc2)cc1`, the T/C [6] was 97 % of control, the T/C [7] was 91 % of control and the T/C [1] was 88 % of control. For the same molecule, the T/C [8] was 100 % of control.

`[Cl][Hg][Cl].c1ccc(N=P(c2ccccc2)(c2ccccc2)c2ccccc2)cc1` was tested, and the T/C (dose: 9.38 mg/kg/injection, schedule: Q01DX001 (ip), vehicle: other) was 96 % of control and the T/C (dose: 18.75 mg/kg/injection, schedule: Q01DX001 (ip), vehicle: other) was 102 % of control.

With `COc1cccc(CC2=NCCc3cc(OC)c(OC)cc32)c1` the T/C [6] was 103 % of control, the T/C [7] was 101 % of control and the T/C [8] was 97 % of control. The T/C [9] was 98 % of control.

`Nc1nc(=S)c2ncn(C3OC(COC(=O)c4ccc(Cl)cc4)C(OC(=O)c4ccc(Cl)cc4)C3OC(=O)c3ccc(Cl)cc3)c2[nH]1` (stereo not drawn) was tested, and the T/C (dose: 3.5 mg/kg/injection, schedule: Q01DX Z (ip), vehicle: carboxymethylcellulose (CMC)) was 113 % of control, the T/C (dose: 12.0 mg/kg/injection, schedule: Q01DX Z (ip), vehicle: carboxymethylcellulose (CMC)) was 156 % of control and the T/C (dose: 12.0 mg/kg/injection, schedule: Q01DX Z (ip), vehicle: saline) was 170 % of control. For the same molecule, the T/C (dose: 19.0 mg/kg/injection, schedule: Q01DX Z (ip), vehicle: carboxymethylcellulose (CMC)) was 115 % of control, the T/C (dose: 44.0 mg/kg/injection, schedule: Q01DX Z (ip), vehicle: carboxymethylcellulose (CMC)) was 150 % of control and the T/C (dose: 50.0 mg/kg/injection, schedule: Q01DX Z (ip), vehicle: saline) was 114 % of control. The T/C (dose: 150.0 mg/kg/injection, schedule: Q01DX Z (ip), vehicle: carboxymethylcellulose (CMC)) was 108 % of control.

In the case of `Cc1cccnc1C(=O)O`, the T/C (dose: 50.0 mg/kg/injection, schedule: Q04DX003 (ip), vehicle: saline with Tween-80) is reported as 94 % of control, the T/C [1] is reported as 94 % of control and the T/C [10] is reported as 95 % of control. For the same molecule, the T/C [2] was 94 % of control and the T/C [11] was 91 % of control.

`CCCCN(CCCC)P(=S)(OCC)OCC` was tested, and the T/C [10] was 100 % of control, the T/C [11] was 102 % of control and the T/C (dose: 400.0 mg/kg/injection, schedule: Q04DX003 (ip), vehicle: saline with Tween-80) was 104 % of control.

In the case of `CC(C)(C)OC(=O)NC1CCCCC1`, the T/C (dose: 100.0 mg/kg/injection, schedule: Q04DX002 (ip), vehicle: saline with Tween-80) is reported as 111 % of control, the T/C (dose: 200.0 mg/kg/injection, schedule: Q04DX002 (ip), vehicle: saline with Tween-80) is reported as 101 % of control and the T/C (dose: 400.0 mg/kg/injection, schedule: Q04DX002 (ip), vehicle: saline with Tween-80) is reported as 104 % of control.

For `CC1(C)Cc2cccc(C(=O)CCCN3CCCCC3)c2O1`, the T/C [1] was 104 % of control.

With `CNC1CCCCC1O` (stereo not drawn) the T/C [7] was 97 % of control, the T/C [8] was 91 % of control and the T/C (dose: 200.0 mg/kg/injection, schedule: Q01DX009 (ip), vehicle: saline) was 94 % of control.

In the case of `N#CCCSC(=N)N`, the T/C [6] is reported as 107 % of control, the T/C (dose: 25.0 mg/kg/injection, schedule: Q04DX003 (ip), vehicle: saline) is reported as 96 % of control and the T/C [7] is reported as 118 % of control. For the same molecule, the T/C [12] was 102 % of control, the T/C [1] was 95 % of control and the T/C [8] was 103 % of control. The T/C [9] was 107 % of control.

`CC(C)NC(=O)C1C2CC3OC(=O)C1C3C2` (stereo not drawn) was tested, and the T/C [9] was 98 % of control, the T/C [13] was 98 % of control and 88 % of control and the T/C (dose: 400.0 mg/kg/injection, schedule: Q04DX003 (ip), vehicle: saline) was 101 % of control and 95 % of control.

With `Nc1c(Cl)c(Cl)c2c(c1Cl)C(O)c1cc(Cl)ccc1-2` (stereo not drawn) the T/C [3] was 89 % of control, the T/C [4] was 95 % of control and the T/C [5] was 93 % of control.

For `CC1(C)OCC(C2OC(C)(C)OC2C(O)c2cn(-c3ccccc3)nn2)O1` (stereo not drawn), the T/C (dose: 100.0 mg/kg/injection, schedule: Q01DX005 (ip), vehicle: saline) was 102 % of control and the T/C (dose: 200.0 mg/kg/injection, schedule: Q01DX005 (ip), vehicle: saline) was 104 % of control.

With `COC1(c2ccc(Cl)cc2)OC(=O)C(c2ccccc2)=C1Cc1ccccc1` (stereo not drawn) the T/C (dose: 12.5 mg/kg/injection, schedule: Q01DX009 (ip), vehicle: saline with Tween-80) was 93 % of control, the T/C (dose: 25.0 mg/kg/injection, schedule: Q01DX009 (ip), vehicle: saline with Tween-80) was 89 % of control and the T/C (dose: 50.0 mg/kg/injection, schedule: Q01DX009 (ip), vehicle: saline with Tween-80) was 100 % of control.

With `Nc1nc(=O)[nH]c(N)c1N` the T/C [12] was 91 % of control, the T/C [1] was 98 % of control and the T/C [9] was 91 % of control. The T/C [2] was 114 % of control and the T/C [13] was 88 % of control.

In the case of `CC(C)CP(=S)(CC(C)C)CC(C)C`, the T/C (dose: 100.0 mg/kg/injection, schedule: Q01DX001 (ip), vehicle: saline with Tween-80) is reported as 103 % of control, the T/C (dose: 200.0 mg/kg/injection, schedule: Q01DX001 (ip), vehicle: saline with Tween-80) is reported as 103 % of control and the T/C (dose: 400.0 mg/kg/injection, schedule: Q01DX001 (ip), vehicle: saline with Tween-80) is reported as 89 % of control.
